Where a SMILES comes first, the peptide text is derived from it. [ ]: non-standard residue; d: D form. The star is where a group is joined. Cys(free,S-linked) = N[C@@H](CS*)C(=O)O; dAbu = CC[C@@H](N)C(=O)O

The test system of one series is normal rats. The experiment in a line: In vivo efficacy in a normal rat model after a single dose. The arrangement: species or system rat (Sprague Dawley). The note with it: 3 mg/kg intravenous. As to the method:
SPF normal adult rats (Sprague Dawley, or SD) with weight of 250-350 g were fed with normal diet in an animal room for 7 days. Rats were randomized into groups of 6, half female and half male, and numbered. The day before the start of the experiment, 540 μL of blood was collected from each rat, and the plasma parathyroid hormone levels and the serum calcium ion concentration were measured as control values before administration. […] The plasma parathyroid hormone levels were measured using the Rat Intact PTH ELISA Kit (Quidel—Immunotopics, Cat. #: 60-2500; ELISA: Enzyme-linked immunosorbent assay) according to the kit instructions. […] The absorbance at 450 nm in each well was detected within 10 min after the addition of the ELISA terminating solution, while the absorbance at 620 nm was subtracted as background. A mixture of horseradish peroxidase ELISA substrate 150 μL and ELISA terminating solution 100 μL was used as the blank control in the absorbance detection. A standard curve according to the absorbance of the reference standard was plotted, and the actual plasma parathyroid hormone concentration was calculated according to the absorbance of other samples and the standard curve. […]

Series [1] relates to rat peritoneal mast cells. Briefly: In vitro histamine release in rat peritoneal mast cells. Type of series: cell-based. The note with it: final concentration 10 μM. The protocol:
To evaluate the in vitro histamine release levels induced by some of the test example compounds, rat peritoneal mast cells were collected by lavaging rat peritoneum with a lavage buffer (cold HBSS+25 mM HEPES containing heparin 5 U/mL, pH 7.4). After collection, the cells were centrifuged, and the lavage buffer was discarded. The cells were resuspended and washed twice with a stimulation buffer (HBSS+25 mM HEPES+1 mM CaCl2), pH 7.4). The cells were plated at a density of 10^5 cell/well (200 μL/well) and incubated at 37° C. for 15 min with positive control compound 48/80 (final concentration: 4 μg/mL), test example compound (final concentration: 10 μM) or vehicle control. The cells were centrifuged, and cell supernatant was collected and tested for histamine concentration according to LDN Histamine ELISA kit (BAE-1000) instructions.

The subject of the next series is human red blood cells. The experiment in a line: Hemolytic effect on human red blood cells in vitro. As to conditions: compound of formula (I) at 100 μg/mL; 37° C. for 1 h; absorbance at 540 nm; FIG. 1.

As for `CC[C@@H](NC(=O)[C@@H](CCCNC(=N)N)NC(=O)[C@@H](CCCNC(=N)N)NC(=O)[C@@H](CSSC[C@H](N)C(=O)O)NC(C)=O)C(=O)N[C@H](CCCNC(=N)N)C(=O)N[C@H](C)C(=O)N[C@H](CCCNC(=N)N)C(N)=O` [Compound of formula (I), Ac-c(C)-r-r-(D-Abu)-r-a-r-NH2] (Ac-[dC](Cys(free,S-linked))[dR][dR][dAbu][dR][dA][dR]-NH2), the “serum calcium ion levels” value in the series on normal rats (FIG. 3) is recorded as “correspondingly reduced”. Also, the “plasma parathyroid hormone levels” value in the series with normal rats (within 4 h, FIG. 2) is reported as “completely reduced”. In series [1], the “histamine release levels in rat peritoneal mast cells in vitro relative to the etelcalcetide” value is “greatly reduced”. Also, in series [1] (37° C. 15 min, relative to PBS buffer), the “Relative fold of histamine release in vitro” value stood at 0.97.

On to polyethylene glycol octyl phenyl ether, for which the “hemolytic effect on red blood cells” value with human red blood cells was “significant hemolytic effect”.

Values taken from patent publication US20240269227A1, “CALCIUM-SENSING RECEPTOR AGONIST COMPOSITION AND APPLICATION THEREOF” (Beijing Tuo Jie Biopharmaceutical Co. Ltd., priority 2021, published 2024).
